Measurements taken from US6627646B2 (Sepracor Inc., priority 2001, dated 2003).

What was measured:
[1] = factor between polymorphs; cited from earlier work
[2] = XRPD (Rietveld) polymorph determination of samples made by literature processes; type: physicochemical; details: samples generated following referenced literature procedures; validated XRPD method
Excerpt: A Rietveld analysis was developed that allowed quantitative determination of Form B in Form A down to a detection limit at 5%. Upon analysis, it became apparent that the desired polymorph, in any reasonable degree of purity, could not be produced by the known procedures, and indeed, even a specific ratio of polymorphs was not consistently produced by the known procedures. As discussed above, such a situation is highly undesirable from both a medical and a regulatory standpoint.
All prior processes for producing norastemizole free base, described in art known to the applicants, were examined. The samples were generated following the referenced procedures and were tested using the validated XRPD method.

| Polymorph Results, % Form B [2] | SMILES | difference in bio-activity between form A and form B [1] |
| --- | --- | --- |
| 100% | Fc1ccc(Cn2c(NC3CCNCC3)nc3ccccc32)cc1 [H1632-6A] | – |
| 100% | Fc1ccc(Cn2c(NC3CCNCC3)nc3ccccc32)cc1 [H1632-30A] | – |
| 86% | Fc1ccc(Cn2c(NC3CCNCC3)nc3ccccc32)cc1 [R1632-7A] | – |

More lines, now with the values behind:

| SMILES | Polymorph Results, % Form B [2] | difference in bio-activity between form A and form B [1] |
| --- | --- | --- |
| CCCCCCCCCCCCCCCC(=O)OC[C@@H](NC(=O)C(Cl)Cl)[C@H](O)c1ccc([N+](=O)[O-])cc1 [Chloramphenicol-3-palmitate] | – | eight |
| Fc1ccc(Cn2c(NC3CCNCC3)nc3ccccc32)cc1 [H1632-4A] | 91% | – |
| Fc1ccc(Cn2c(NC3CCNCC3)nc3ccccc32)cc1 [H1632-5A] | 90% | – |
